This is an account of results in patent publication US20050277190A1, “Pancreatic stem cells” (priority 2004, published 2005).

“Also recorded” adds a separate entry of the source. Ends that are not written are not given here.

Holding throughout (format): cell-based, mouse
One test concerns PSC spheres. Nature of the test: PSC sphere colony formation assay and serum-free passaging with BIO. The settings on record: BIO included during primary serum-free sphere formation and serum-free passaging; period of 5 months. From the text:
1) Using the standard PSC sphere colony formation assay, the (commercially available) compound, BIO ((2_Z,3_E)-6-Bromoindirubin-3_-oxime) has been included. […] The GSK-3α/β protein kinases have a critical role within the Wnt-signalling pathway, with their inhibition by BIO leading to an activation of the Wnt pathway. The Wnt pathway is involved with the specification/development of multiple tissues. With BIO inclusion during the primary serum-free sphere formation and subsequent serum-free passaging, PSC spheres can be passaged indefinitely. PSC spheres have been successfully passaged, currently up to the 9th passage over a period of 5 months. The number of sphere-forming cells and resultant clonal spheres expanded (over 30-fold) during this period.
Isolated islets and ductal tissue were then incubated with trypsin (Sigma) at 37° C. and triturated with a small-borehole siliconized pipette into a single cell suspension. Viable cells were counted using Trypan Blue (Sigma) exclusion and plated at 20 cells μl^−1 or less in defined serum-free medium (SFM)^63 containing B27 (Gibco-BRL), 10 ng ml^−1 FGF2 (Sigma), 2 μg ml^−1 heparin (Sigma), and 20 ng ml^−1 EGF (Sigma) for 7-14 DIV. […] Each well was scored after plating for the presence of a single cell. […]

For test [1], the system named is YFP+ cells from islet- and ductal-derived PSC cultures. Nature of the test: [Ca2+]i imaging (Fura2) of RIP-YFP+ cells from differentiated PSC colonies. Particulars: agent added on top of glucose; single YFP+ cells, islet- and ductal-derived PSC progeny.
For test [2], the system named is differentiated PSC colonies. Nature of the test: Insulin release by differentiated PSC colonies (radioimmunoassay). The settings on record: 1.5 hour incubation; for insulin release in response to high glucose plus agent: 20 mM glucose with 30 nM GLP-1, 10 mM TEA or 100 μM verapamil; for insulin release in response to agent alone: 20 mM glucose (HG) or 100 μM carbachol alone, relative to LG-KRB. The protocol:
PSC colonies were pooled and differentiated (8 per well, 96-well Matrigel-coated plates) for 7 days as described. Twenty-four hours prior to secretion studies, the medium was changed to supplemented RPMI-1640 medium as outlined above. Differentiated PSC colonies were pre-incubated in low glucose (2.5 mM) KRB solution (LG-KRB) for 1 hour. The solution was changed to 150 μl of fresh LG-KRB and the cultures were incubated for 1.5 hours to establish the basal level of insulin release. […] Insulin was measured using an RIA kit (Linco). Insulin release during the experimental 1.5 hour incubation was compared to the level determined during the basal 1.5 hour incubation period for each individual well to obtain a percent change. The data are expressed relative to the percent change measured for the LG-KRB to LG-KRB alone condition.

For `O=C1Nc2cc(Br)ccc2/C1=C1/Nc2ccccc2/C1=N\O` [BIO, (2_Z,3_E)-6-Bromoindirubin-3_-oxime], the “expansion of the number of sphere-forming cells and resultant clonal spheres” value in the test on PSC spheres is listed as “over 30 fold”. Take `CC[N+](CC)(CC)CC` [TEA, tetra ethyl ammonium]: the “effect of added agent on glucose-stimulated [Ca2+]i response” value in test [1] is “augmented”. Besides, the “insulin release in response to high glucose plus agent” value in test [2] was “augmentation of this release; also recorded: increased insulin secretion; also recorded: increased insulin release”. Turning to `C[N+](C)(C)CCOC(N)=O` [carbachol], the “insulin release in response to agent alone” value is “insulin release in response to carbachol; also recorded: secrete insulin in response to carbachol” in test [2] and “increased insulin release” in test [2] (listed as Carbachol).

Take `COc1ccc(CCN(C)CCCC(C#N)(c2ccc(OC)c(OC)c2)C(C)C)cc1OC` (centres unmarked) [verapamil]: the “insulin release in response to high glucose plus agent” value in test [2] is reported as “abolishes glucose-stimulated insulin release to basal levels; also recorded: abolished the glucose-stimulated insulin release”. For “glucagon-like peptide-1 (HAEGTFTSDVSSYLEGQAAKEFIAWLVKGR; ends and bridges not checked; UniProt P01275 98-127, looked up) [GLP-1, physiological secretagogue known to stimulate β-cells in a glucose-dependent manner]”, the “effect of added agent on glucose-stimulated [Ca2+]i response” value in test [1] is listed as “augmented”. For the same compound, the “insulin release in response to high glucose plus agent” value in test [2] is reported as “augmentation of this release; also recorded: increased insulin secretion; also recorded: increased insulin release”.
